{
  "source": "ChEMBL document CHEMBL1201862",
  "about": "“PubChem BioAssay data set” (2004)",
  "key": {"Large T antigen": {"target": "Large T antigen (Simian virus 40, UniProt P03070)", "sequence (P03070 whole entry)": "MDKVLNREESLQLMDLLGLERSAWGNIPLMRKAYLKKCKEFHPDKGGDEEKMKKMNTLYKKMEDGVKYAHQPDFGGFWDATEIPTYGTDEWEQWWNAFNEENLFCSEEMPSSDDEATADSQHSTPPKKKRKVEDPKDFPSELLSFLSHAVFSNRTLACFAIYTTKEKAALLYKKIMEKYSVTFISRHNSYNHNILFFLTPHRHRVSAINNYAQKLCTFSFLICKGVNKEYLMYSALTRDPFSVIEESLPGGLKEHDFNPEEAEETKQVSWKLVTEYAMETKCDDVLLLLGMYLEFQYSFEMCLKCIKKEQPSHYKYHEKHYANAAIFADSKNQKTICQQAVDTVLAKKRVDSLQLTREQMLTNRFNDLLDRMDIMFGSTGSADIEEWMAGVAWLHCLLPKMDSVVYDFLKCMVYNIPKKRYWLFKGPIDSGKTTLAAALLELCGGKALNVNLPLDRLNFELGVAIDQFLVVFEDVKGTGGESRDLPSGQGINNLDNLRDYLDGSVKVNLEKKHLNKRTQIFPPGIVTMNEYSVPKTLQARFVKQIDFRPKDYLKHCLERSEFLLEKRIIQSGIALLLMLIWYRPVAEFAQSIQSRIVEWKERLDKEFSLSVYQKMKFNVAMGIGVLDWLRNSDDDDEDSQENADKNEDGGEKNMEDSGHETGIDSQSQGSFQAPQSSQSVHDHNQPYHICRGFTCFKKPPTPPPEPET", "assay_type": "functional, Betapolyomavirus macacae"}, "[1]": {"assay": "Counterscreen for inhibitors of Trypanosoma brucei methionyl tRNA synthetase (MetRS): Luminescence-based cell-based high throughput dose response assay to identify compounds that are cytotoxic to Jurkat human T lymphocyte cells.", "assay_type": "functional"}, "SUMO-activating enzyme [2]": {"target": "T1, SUMO-activating enzyme (Homo sapiens, UniProt Q9UBT2)", "T1 sequence (Q9UBE0 whole entry)": "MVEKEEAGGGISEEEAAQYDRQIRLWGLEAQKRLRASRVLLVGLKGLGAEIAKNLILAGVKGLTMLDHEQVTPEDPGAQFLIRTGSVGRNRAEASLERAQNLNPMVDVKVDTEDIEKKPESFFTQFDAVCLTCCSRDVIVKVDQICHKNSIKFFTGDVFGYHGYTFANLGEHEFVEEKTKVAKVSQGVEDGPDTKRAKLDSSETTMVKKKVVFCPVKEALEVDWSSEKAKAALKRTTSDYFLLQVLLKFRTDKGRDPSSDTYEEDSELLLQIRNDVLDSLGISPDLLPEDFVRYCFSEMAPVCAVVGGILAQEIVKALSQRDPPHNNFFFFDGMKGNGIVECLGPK", "T1 sequence (Q9UBT2 whole entry)": "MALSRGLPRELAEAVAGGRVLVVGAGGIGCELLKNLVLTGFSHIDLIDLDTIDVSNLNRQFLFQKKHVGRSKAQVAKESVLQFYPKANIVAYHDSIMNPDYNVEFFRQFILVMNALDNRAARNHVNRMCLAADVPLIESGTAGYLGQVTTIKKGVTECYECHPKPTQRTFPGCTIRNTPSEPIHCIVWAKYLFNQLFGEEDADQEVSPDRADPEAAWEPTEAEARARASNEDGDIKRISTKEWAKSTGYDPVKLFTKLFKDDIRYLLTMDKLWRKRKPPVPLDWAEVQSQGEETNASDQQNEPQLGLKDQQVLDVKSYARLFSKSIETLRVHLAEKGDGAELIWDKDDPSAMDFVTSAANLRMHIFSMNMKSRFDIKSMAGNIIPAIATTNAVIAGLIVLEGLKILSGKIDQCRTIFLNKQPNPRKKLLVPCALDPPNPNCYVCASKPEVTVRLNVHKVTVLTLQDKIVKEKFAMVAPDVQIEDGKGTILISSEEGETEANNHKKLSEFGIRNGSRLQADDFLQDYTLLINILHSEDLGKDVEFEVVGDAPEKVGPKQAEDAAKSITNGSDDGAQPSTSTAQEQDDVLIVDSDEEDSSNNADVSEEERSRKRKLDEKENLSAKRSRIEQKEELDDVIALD", "assay": "SUMOylation inhibitor hit validation, confirmation, SUMOylation inhibitor project, biochemical, AlphaScreen (AID 2018)", "assay_type": "functional"}, "[3]": {"target": "T2, Induced myeloid leukemia cell differentiation protein Mcl-1 (Homo sapiens, UniProt Q07820)", "T2 sequence (Q07820 whole entry)": "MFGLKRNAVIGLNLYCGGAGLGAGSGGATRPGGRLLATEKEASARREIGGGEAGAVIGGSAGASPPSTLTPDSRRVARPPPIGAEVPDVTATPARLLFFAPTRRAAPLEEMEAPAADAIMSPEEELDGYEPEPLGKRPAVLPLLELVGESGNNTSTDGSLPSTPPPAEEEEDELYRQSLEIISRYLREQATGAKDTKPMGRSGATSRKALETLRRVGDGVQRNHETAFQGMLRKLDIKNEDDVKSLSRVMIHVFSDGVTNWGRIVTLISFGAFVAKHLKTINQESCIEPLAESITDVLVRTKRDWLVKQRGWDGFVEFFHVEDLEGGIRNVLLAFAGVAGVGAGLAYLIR", "assay": "MCL1-BIM BH3 interaction inhibitors, dose response, biochemical, fluorescence polarization, BIM-BH3 peptide, 1536-well (AID 2217)"}, "[4]": {"target": "T3, Methionyl-tRNA synthetase, putative (Trypanosoma brucei brucei, UniProt Q38C91)", "T3 sequence (Q38C91 whole entry)": "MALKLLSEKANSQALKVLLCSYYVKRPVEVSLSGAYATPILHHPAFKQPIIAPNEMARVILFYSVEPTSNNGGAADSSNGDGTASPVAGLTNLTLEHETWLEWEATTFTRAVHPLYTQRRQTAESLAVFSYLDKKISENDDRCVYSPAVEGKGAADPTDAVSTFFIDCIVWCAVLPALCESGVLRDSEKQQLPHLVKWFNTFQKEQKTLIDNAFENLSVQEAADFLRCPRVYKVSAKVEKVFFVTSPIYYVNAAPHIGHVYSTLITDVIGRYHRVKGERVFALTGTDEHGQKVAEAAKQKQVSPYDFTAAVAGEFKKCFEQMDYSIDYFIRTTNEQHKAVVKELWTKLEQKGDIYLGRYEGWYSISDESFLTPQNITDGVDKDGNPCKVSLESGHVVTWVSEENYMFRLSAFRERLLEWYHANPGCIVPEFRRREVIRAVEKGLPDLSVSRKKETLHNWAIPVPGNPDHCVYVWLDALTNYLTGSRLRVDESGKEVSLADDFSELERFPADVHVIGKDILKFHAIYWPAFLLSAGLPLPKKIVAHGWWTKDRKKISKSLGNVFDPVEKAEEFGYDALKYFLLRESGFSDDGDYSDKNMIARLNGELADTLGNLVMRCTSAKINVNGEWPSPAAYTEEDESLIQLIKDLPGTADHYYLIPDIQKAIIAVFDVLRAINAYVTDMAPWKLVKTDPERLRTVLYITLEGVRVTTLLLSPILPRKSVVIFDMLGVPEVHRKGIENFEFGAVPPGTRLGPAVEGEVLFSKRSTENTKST", "assay_type": "functional, Trypanosoma brucei brucei strain 927/4 GUTat10.1"}, "[5]": {"target": "T2, Induced myeloid leukemia cell differentiation protein Mcl-1", "assay_type": "functional"}, "SUMO-activating enzyme [6]": {"target": "T1, SUMO-activating enzyme", "assay": "inhibitors of in vitro SUMOylation cascade, primary screen, biochemical, HTRF, uHTS (AID 2006)", "assay_type": "protein-complex assay"}, "[7]": {"assay": "HIV-1 Env-mediated cell fusion inhibitors, dose response, CCR5-tropic Env (AID 2279)", "assay_type": "functional"}, "[8]": {"assay": "Artemis endonuclease inhibitor potency, dose response, biochemical, fluorescence intensity (AID 720701)", "assay_type": "functional"}, "Prothrombin": {"target": "Prothrombin (Bos taurus, UniProt P00735)", "assay": "thrombin inhibition, dose response, biochemical, fluorescence polarization, uHTS hits (AID 602369)", "assay_type": "functional"}, "Bcl-2-like protein 1": {"target": "Bcl-2-like protein 1 (Homo sapiens, UniProt Q07817)", "sequence (Q07817 whole entry)": "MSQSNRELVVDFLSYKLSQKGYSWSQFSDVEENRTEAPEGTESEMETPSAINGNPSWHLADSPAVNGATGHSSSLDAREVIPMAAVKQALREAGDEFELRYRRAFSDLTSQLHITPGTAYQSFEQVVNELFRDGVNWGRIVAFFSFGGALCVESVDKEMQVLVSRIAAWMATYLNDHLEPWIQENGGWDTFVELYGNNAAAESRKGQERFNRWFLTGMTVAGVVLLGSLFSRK", "assay": "BCL-XL inhibitors, dose response, selectivity assay for MCL1 inhibitor project, biochemical, fluorescence polarization, 1536-well (AID 2218)"}, "[9]": {"target": "T3, Methionyl-tRNA synthetase, putative", "assay_type": "functional, Trypanosoma brucei brucei strain 927/4 GUTat10.1", "remark": "listed apart in the source"}, "Phospholipase A2": {"target": "Phospholipase A2 (Homo sapiens, UniProt P04054)", "assay_type": "functional"}, "Aminopeptidase N": {"target": "T4, Aminopeptidase N (Plasmodium falciparum FcB1/Columbia, UniProt O96935)", "T4 sequence (O96935 whole entry)": "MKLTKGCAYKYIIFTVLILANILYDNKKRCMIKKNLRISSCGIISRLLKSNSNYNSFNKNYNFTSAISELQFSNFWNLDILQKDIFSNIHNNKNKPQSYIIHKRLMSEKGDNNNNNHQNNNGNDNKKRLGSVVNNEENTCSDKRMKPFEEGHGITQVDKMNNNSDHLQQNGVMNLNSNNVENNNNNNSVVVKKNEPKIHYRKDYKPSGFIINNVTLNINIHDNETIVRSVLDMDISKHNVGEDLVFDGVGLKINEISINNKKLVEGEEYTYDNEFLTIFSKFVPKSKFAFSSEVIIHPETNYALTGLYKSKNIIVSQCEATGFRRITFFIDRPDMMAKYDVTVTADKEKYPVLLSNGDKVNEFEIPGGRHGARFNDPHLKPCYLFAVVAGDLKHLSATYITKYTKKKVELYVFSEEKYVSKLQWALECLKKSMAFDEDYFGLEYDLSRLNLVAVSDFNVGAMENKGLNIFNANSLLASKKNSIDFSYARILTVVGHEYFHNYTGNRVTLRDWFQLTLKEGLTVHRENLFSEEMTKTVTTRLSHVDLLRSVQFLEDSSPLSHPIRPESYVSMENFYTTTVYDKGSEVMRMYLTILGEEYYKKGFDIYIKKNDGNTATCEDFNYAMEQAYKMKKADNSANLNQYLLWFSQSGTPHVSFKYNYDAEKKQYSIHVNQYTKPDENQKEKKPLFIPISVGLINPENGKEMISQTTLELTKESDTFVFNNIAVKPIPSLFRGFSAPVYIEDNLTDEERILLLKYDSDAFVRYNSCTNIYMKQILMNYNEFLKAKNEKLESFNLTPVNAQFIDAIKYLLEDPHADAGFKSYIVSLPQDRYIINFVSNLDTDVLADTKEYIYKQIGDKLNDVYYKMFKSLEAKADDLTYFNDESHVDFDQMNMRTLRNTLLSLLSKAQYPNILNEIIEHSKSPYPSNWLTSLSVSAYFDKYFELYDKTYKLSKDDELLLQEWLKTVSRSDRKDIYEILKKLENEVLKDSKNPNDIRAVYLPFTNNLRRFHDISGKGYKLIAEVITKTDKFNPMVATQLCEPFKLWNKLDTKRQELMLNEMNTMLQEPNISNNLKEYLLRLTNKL", "assay": "P. falciparum M1AAP inhibitors, biochemical, fluorogenic H-Leu-NHMec substrate, 1536-well (AID 1445)", "parameters": "species or system Plasmodium falciparum 3D7, 3D7"}, "[10]": {"target": "72 kDa type IV collagenase (Homo sapiens, UniProt P08253)", "sequence (P08253 whole entry)": "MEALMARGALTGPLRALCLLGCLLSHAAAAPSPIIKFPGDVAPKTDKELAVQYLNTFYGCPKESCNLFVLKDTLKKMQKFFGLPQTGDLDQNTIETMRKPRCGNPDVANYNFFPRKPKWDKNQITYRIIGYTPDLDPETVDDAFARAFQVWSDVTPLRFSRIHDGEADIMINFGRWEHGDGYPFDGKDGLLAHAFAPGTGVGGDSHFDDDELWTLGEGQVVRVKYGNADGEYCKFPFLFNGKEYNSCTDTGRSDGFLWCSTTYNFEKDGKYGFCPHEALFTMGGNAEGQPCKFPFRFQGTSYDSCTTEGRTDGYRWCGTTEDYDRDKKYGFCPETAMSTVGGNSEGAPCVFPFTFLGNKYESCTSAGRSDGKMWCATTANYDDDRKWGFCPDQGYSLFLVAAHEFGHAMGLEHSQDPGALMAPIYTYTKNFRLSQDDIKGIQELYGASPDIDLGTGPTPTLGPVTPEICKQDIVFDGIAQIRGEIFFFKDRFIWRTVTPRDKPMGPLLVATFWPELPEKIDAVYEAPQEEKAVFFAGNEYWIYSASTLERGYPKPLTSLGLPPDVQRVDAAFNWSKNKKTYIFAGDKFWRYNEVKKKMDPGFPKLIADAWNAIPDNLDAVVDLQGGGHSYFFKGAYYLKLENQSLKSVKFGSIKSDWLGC", "assay": "Dose Response validation of uHTS RPN11 inhibitor hits using a MMP-2 Fluorescence assay.", "assay_type": "functional"}, "Cysteine protease ATG4B": {"target": "T5, Cysteine protease ATG4B (Homo sapiens, UniProt Q9Y4P1)", "T5 sequence (Q9Y4P1 whole entry)": "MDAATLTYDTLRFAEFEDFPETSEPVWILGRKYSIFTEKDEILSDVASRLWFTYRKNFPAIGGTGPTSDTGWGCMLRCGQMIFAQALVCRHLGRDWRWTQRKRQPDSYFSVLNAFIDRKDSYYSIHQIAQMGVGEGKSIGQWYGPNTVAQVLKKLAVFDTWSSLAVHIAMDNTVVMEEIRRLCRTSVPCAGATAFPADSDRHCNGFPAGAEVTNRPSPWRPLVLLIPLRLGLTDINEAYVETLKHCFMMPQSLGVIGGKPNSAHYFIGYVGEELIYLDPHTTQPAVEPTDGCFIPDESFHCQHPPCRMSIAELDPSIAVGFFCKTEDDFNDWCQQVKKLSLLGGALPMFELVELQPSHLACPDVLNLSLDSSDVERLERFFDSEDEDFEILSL", "assay_type": "functional"}, "[11]": {"target": "26S proteasome non-ATPase regulatory subunit 14 (Homo sapiens, UniProt O00487)", "sequence (O00487 whole entry)": "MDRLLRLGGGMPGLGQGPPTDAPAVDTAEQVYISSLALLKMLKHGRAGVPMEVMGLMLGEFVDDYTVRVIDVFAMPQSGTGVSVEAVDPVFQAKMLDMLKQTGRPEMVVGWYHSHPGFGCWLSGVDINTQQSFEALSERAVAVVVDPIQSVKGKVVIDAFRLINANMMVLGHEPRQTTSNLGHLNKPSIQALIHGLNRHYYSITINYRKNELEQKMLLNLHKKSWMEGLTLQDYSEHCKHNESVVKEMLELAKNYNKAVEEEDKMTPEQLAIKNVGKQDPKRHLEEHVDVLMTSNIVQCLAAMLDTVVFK", "assay": "inhibition of proteasome subunit RPN11 – biochemical, fluorescence polarization, uHTS hits, confirmation (AID 602368)", "assay_type": "functional"}, "Vero": {"test_system": "Vero", "assay": "Vero cell cytotoxicity, cytotoxicity control for flavivirus capping enzyme inhibitors (AID 588742)", "assay_type": "functional", "conditions": "Chlorocebus sabaeus"}, "Genome polyprotein": {"target": "Genome polyprotein (dengue virus type 2, UniProt P29990)", "sequence (P29990 2492-3391 limits assumed)": "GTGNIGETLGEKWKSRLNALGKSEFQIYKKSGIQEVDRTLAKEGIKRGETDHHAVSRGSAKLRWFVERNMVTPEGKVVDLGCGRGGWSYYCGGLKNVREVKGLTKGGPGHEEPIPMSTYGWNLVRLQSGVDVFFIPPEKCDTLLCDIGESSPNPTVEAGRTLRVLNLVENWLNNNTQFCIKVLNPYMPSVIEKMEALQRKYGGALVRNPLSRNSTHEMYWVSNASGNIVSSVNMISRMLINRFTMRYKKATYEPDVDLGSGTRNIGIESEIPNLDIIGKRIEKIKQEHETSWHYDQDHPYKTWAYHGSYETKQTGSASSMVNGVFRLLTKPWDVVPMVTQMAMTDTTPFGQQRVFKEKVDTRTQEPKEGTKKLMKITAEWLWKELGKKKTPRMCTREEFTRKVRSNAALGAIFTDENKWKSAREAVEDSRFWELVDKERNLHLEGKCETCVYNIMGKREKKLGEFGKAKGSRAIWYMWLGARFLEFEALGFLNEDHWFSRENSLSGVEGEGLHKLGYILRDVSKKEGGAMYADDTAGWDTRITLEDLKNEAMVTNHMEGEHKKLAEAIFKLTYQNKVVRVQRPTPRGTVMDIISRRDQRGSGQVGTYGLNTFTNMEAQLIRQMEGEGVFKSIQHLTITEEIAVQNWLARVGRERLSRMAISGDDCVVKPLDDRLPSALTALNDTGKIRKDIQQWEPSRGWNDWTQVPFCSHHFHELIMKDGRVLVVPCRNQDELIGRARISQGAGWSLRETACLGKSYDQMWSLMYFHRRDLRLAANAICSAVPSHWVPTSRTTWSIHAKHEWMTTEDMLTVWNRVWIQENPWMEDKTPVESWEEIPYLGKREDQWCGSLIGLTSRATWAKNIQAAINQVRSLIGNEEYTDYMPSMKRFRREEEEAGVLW", "assay": "Dengue-2 NS5 methyltransferase inhibitors, primary screen, biochemical, confirmation dose response (AID 588689)", "assay_type": "functional"}, "Insulin-degrading enzyme": {"target": "T6, Insulin-degrading enzyme (Homo sapiens, UniProt P14735)", "T6 sequence (P14735 whole entry)": "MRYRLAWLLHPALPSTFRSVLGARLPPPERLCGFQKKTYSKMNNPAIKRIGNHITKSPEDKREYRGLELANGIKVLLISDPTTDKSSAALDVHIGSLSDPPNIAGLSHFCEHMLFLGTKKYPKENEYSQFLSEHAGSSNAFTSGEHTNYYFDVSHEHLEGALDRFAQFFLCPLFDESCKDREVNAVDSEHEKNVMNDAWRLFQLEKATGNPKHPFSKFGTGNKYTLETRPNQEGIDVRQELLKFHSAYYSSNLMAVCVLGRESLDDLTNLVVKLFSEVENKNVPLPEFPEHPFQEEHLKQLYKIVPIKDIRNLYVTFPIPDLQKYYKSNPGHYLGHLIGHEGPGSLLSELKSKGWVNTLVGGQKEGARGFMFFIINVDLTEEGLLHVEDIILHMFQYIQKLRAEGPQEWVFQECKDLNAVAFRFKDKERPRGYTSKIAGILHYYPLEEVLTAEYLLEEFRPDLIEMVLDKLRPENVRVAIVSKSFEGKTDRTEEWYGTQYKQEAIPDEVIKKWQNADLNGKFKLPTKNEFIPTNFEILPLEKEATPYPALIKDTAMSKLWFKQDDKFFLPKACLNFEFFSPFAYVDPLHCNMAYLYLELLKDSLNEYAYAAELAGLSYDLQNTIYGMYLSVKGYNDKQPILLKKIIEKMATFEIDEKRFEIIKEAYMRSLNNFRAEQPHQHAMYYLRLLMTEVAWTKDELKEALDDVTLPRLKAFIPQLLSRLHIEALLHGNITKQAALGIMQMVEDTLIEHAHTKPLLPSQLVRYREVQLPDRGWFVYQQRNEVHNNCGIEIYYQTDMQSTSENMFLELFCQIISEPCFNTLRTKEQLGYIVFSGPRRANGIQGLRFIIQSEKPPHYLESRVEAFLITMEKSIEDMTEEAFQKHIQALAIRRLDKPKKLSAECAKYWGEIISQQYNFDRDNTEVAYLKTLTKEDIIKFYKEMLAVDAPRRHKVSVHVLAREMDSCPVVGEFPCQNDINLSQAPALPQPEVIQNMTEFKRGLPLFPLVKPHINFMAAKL", "assay": "Dose Response: Fluorescence polarization-based cell-based high throughput dose response assay for inhibitors of insulin-degrading enzyme (IDE). [Related pubchem assays: 434962 (Primary screen (IDE inhibitors in singlicate)), 449730 (Counterscreen (Cytotoxicity in triplicate)), 435028 (Confirmation (IDE inhibitors in triplicate)), 434984 (Summary …", "assay_type": "functional"}, "[12]": {"target": "T7, RNA-binding protein pos-1 (Caenorhabditis elegans, UniProt G5EF15)", "T7 sequence (G5EF15 whole entry)": "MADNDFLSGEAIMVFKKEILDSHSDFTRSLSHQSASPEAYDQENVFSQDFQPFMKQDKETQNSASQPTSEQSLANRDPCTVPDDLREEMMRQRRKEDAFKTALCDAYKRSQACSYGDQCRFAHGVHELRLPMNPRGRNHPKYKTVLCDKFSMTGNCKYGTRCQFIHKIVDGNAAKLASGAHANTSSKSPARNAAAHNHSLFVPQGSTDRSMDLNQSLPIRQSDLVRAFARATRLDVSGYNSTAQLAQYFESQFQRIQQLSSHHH", "assay": "inhibitors of POS-1/mex-3 RNA binding, dose response, biochemical, fluorescence polarization (AID 1964);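 further: purified POS-1 fused to maltose binding protein made in E. coli; potency of compounds blocking POS-1 binding to fluorescent RNA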"}, "[13]": {"assay": "Counterscreen for IDE inhibitors: Luminescence-based cell-based high throughput dose response assay to identify compounds that are cytotoxic to HEK cells. [Related pubchem assays: 434962 (Primary screen (IDE inhibitors in singlicate)), 449730 (Counterscreen (Cytotoxicity in triplicate)), 435028 (Confirmation (IDE inhibitors in triplicate)) …", "assay_type": "functional", "conditions": "HEK293"}},
  "note": "The source made the active and inactive calls.",
  "data": [
    {"smiles": "O=C(N/N=C/c1ccc(-c2ccc(S(=O)(=O)Nc3ncccn3)cc2)o1)c1cc2ccccc2cc1O", "values": [
      {"measurement": "IC50", "setting": "Large T antigen", "value": "52.8 µM (active)"},
      {"measurement": "IC50", "setting": "[1]", "value": "83.3 µM (inactive)"},
      {"measurement": "IC50", "setting": "SUMO-activating enzyme [2]", "value": "2.21 µM (active)"},
      {"measurement": "IC50", "setting": "[3]", "value": "> 4.03 µM (active)"},
      {"measurement": "IC50", "setting": "[4]", "value": "18.6 µM (inactive)"},
      {"measurement": "IC50", "setting": "[5]", "value": "1.63 µM (active)"},
      {"measurement": "IC50", "setting": "SUMO-activating enzyme [6]", "value": "12.4 µM (active)"},
      {"measurement": "IC50", "setting": "[7]", "value": "17 µM (active)"},
      {"measurement": "IC50", "setting": "[8]", "value": "11.4 µM (active)"},
      {"measurement": "IC50", "setting": "Prothrombin", "value": "75.6 µM (active)"},
      {"measurement": "IC50", "setting": "Bcl-2-like protein 1", "value": "> 109 µM (not active)"},
      {"measurement": "IC50", "setting": "[9]", "value": "15.8 µM (inactive)"},
      {"measurement": "IC50", "setting": "Phospholipase A2", "value": "20.3 µM (inactive)"},
      {"measurement": "IC50", "setting": "Aminopeptidase N", "value": "42.3 µM (active)"},
      {"measurement": "IC50", "setting": "[10]", "value": "> 100 µM (inactive)"},
      {"measurement": "IC50", "setting": "Cysteine protease ATG4B", "value": "5.98 µM (active)"},
      {"measurement": "IC50", "setting": "[11]", "value": "33.3 µM (active)"},
      {"measurement": "CC50", "setting": "Vero", "value": "26 µM (active)"},
      {"measurement": "IC50", "setting": "Genome polyprotein", "value": "76.5 µM (active)"}
    ]},
    {"smiles": "COc1ccc(/N=C(\\C)c2sc3ccccc3c2O)cc1", "values": [
      {"measurement": "IC50", "setting": "Insulin-degrading enzyme", "value": "> 18.7 µM (not active)"},
      {"measurement": "EC50", "setting": "[12]", "value": "> 300 µM (not active)"},
      {"measurement": "IC50", "setting": "[13]", "value": "> 55.7 µM (not active)"}
    ]}
  ]
}
